Patent publication US4347177A, “Compounds and methods of making them” (Burroughs Wellcome Co., priority 1980, dated 1982)

Experiment: Pharmacokinetics of bupropion in plasma after oral administration to four normal male subjects (RIA using 3H bupropion)
Assay type: in vivo
Settings: human plasma, oral 200 mg bupropion-HCl (two 100 mg tablets)
Experimental: Samples of six standard solutions of bupropion in blank plasma having concentrations of 0.39 to 50 ng/ml) are pipetted (0.1 ml each) in duplicate into 12×75 mm plastic tubes. Duplicate non-specific binding (no antibody) and maximum binding tubes (no unlabeled bupropion) receive 0.1 ml blank plasma. Spiked plasma controls at several concentrations of (e.g., 1.0, 10.0, and 100 ng/ml) and plasma samples for assay (diluted into the standard range with blank plasma if necessary) are assayed in duplicate. After being placed in an ice bath, all tubes receive (in order) 0.2 ml ^3 H bupropion (416 pg. containing approximately 10^4 cpm) and 0.7 ml anti-bupropion serum (raised to a ring-functionalized immunogen according to the present invention) (at pre-determined dilutions such that approximately 40% of the ^3 H bupropion added is bound), both in assay buffer (0.05 M phosphate-bufferedisotonic saline, containing 0.01 M EDTA and 0.1% gelatin, pH 7.0). […] The supernatants, containing antibody-bound ^3 H bupropion are carefully decanted into liquid scintillation cocktail for quantitation of ^3 H. After counts (minus average non-specific binding cpm) are expressed as percentages of average maximum binding cpm, bupropion concentrations in plasma samples and spiked controls are read from a standard curve (log concentration vs percent average maximum binding).
The procedure of Example X has been applied to a study of bupropion (supplied as Wellbatrin, produced by Burroughs Wellcome Co.) pharmacokinetics in plasma after oral administration of 200 mg bupropion-HCl (in two 100 mg tablets) to four normal male subjects. Venous blood samples were collected at various times following dosing, and concentrations in plasma samples determined as described. […]

SMILES: CC(NC(C)(C)C)C(=O)c1cccc(Cl)c1 (racemic) [bupropion, (±)-2-tert-butylamino-3'-chloropropiophenone]
- Cmax (mean ± S.D., read-out: maximum plasma bupropion concentration): 217 ± 37 ng/mL
- Tmax (mean ± S.D., read-out: time to reach maximum concentration): 1.5 ± 0.4 h
- half-life (± S.D., read-out: mean elimination half-life (converted)): 2.9 ± 0.4 h
